The source of these data is US20150057316A1, “NOVEL SULFONATE-BASED TRIMEBUTINE SALTS” (GICARE PHARMA INC., priority 2012, published 2015).

The conditions of data set [1]: 100 μM, 37° C.; simulated gastric fluid pH 1.2 up to 60 min, simulated intestinal fluid pH 6.8 and acetate buffer pH 5 up to 180 min. The protocol:
Pyridinium 3-thiocarbamoyl-benzenesulfonate and pyridinium 4-thiocarbamoyl-benzenesulfonate (100 μM) were separately incubated at 37° C. in simulated gastric fluid (pH 1.2; without pepsin) up to 60 min, in simulated intestinal fluid (pH 6.8, without procreatin) up to 180 min, and in acetate buffer (pH 5) up to 180 min. At time points of 0, 30, 60, 120 and 180 min, an aliquot of 10 μL of samples were removed and added into vials containing […] internal standard (labetalol) in a mixture of 25:75 acetonitrile:water. Samples were analyzed by HPLC-MS/MS (ESI-, MRM) to monitor disappearance of its counter-ion over the time.

A further data set concerns Caco-2 cells. Put plainly: Caco-2 bidirectional permeability. Type of data set: in vitro ADME, human. The following applies: for % Recovery A − B / Papp A − B: apical to basolateral; for % Recovery A − B / Papp A − B / % Recovery B − A / Papp B − A: 2-hr; for % Recovery B − A / Papp B − A: basolateral to apical; for Permeability: class from Papp A-B; for Significant Efflux: significant: efflux ratio above 3.0 and Papp B-A >1.0×10^−6 cm/s; for Efflux ratio: (Papp B − A)/(Papp A − B). From the text: (§1) Such a procedure helps understanding the suitability of the compound for oral dosing by measuring the rate of transport of the molecule across the Caco-2 cells, which have characteristics that resemble intestinal epithelial cells. Transport in both directions (apical to basolateral (A-B) and basolateral to apical (B-A)) across the cell monolayer was monitored over a 2-hr time period in order to evaluate the efflux ratio, an indicator of whether the compound undergoes significant active efflux or not. The permeability coefficient (Papp) is calculated from the equation: […]
(§2) Where dQ/dt is the rate of permeation of the drug across the cells, Co is the donor compartment concentration at time zero and A is the area of the cell monolayer. Co is obtained from analysis of the dosing solution at the start of the experiment. The analysis method used was LCMS quantification.
(§3) A permeability of (Papp A-B)<1.0×10^−6 cm/s is considered low, whereas a permeability of (Papp A-B)>1.0×10^−6 cm/s is considered high. A significant efflux is generally associated with an efflux ratio above 3.0 and a (Papp B-A)>1.0×10^−6 cm/s in these assay conditions.
A general note: Caco-2 cells form a polarised layer with tight junctions and transporters.

For data set [2] the following is noted: cited from earlier work.
The next data set has as its system mu-opioid receptors. The following applies: cited from earlier work.
The target in a further data set is kappa-opioid receptors (Cavia porcellus, UniProt P41144). The following applies: cited from earlier work.
The subject of the next data set is dog hepatocytes. The data set is described as follows: in-vitro metabolism over dog hepatocytes. The following applies: 10 μM, up to 120 min at 37° C.
The next data set deals with rat hepatocytes. The data set is described as follows: in-vitro metabolism over rat hepatocytes. The following applies: 10 μM, up to 120 min at 37° C.
The subject of the next data set is human hepatocytes. Put plainly: in-vitro metabolism over human hepatocytes. The following applies: 10 μM, up to 120 min at 37° C.
The nature of data set [3]: solid-state stability of trimebutine salts of carboxylic acids. The following applies: 1:1 molar ratio; salts dissociate with heat and/or time.
Data set [4] can be described thus: Caco-2 bidirectional permeability. The format is in vitro ADME, human. The following applies: human; for efflux ratio at 2 h: (Papp B − A)/(Papp A − B).
Source text: as §1, §2, §3

For a further data set, the system named is Sprague-Dawley rats. Put plainly: p.o. pharmacokinetic study in rats, toxicological assessment. Type of data set: in vivo. The following applies: single dose of 230 and 460 mg/kg p.o. The protocol:
In order to evaluate the absolute bioavailability of trimebutine 4-toluenesulfonate (Example 22), an in-vivo pharmacological study was carried out in 6 Sprague-Dawley rats, which were administered a single dose of 230 and 460 mg/kg of the compound by the oral gavage route (p.o.). During this study, assessments included mortality checks and clinical observations. Blood samples were also collected for pharmacokinetic evaluations at 10 time points.

Data set [5] is described as follows: quantification of counter-ion and metabolites in urine and feces of rats. The following applies: 500 mg/kg p.o., 48 hr collection. Type of data set: in vivo. Here is the method: A preliminary toxicological evaluation of the compound was done in 250-300 g male Sprague-Dawley rats. Animals were randomized into one of three dosing group, i.e. 250, 500 or 1,000 mg/kg administered by oral gavage. Following administration of the test article, animals were observed hourly for the first 8 hr post-dosing for clinical signs and twice daily thereafter until termination on Day 7. Three animals per group were sacrificed by exsanguination under general anesthesia at 24-hr post dosing or on Day 7 and a gross necropsy was performed in all animals. Additionally, all three rats having received the 500 mg/kg dose and scheduled for sacrifice on Day 7 were placed in individual metabolic cages immediately following test article administration, in order to collect feces and urine during 48 hr. Blood samples were collected terminally from each rat for hematology and serum chemistry evaluation.
After proper urine and feces samples preparation, trimebutine 3-thiocarbamoyl-benzenesulfonate and its two metabolites were assayed by HPLC-MS/MS (ESI-), in MRM mode. Calibration curves were prepared for each analyte, in both matrices (diluted blank urine and diluted blank feces).

The mark [6] stands for this setting: Caco-2, apical to basolateral, 2-hr, read-out: % Recovery A − B.
The mark [7] stands for this setting: Caco-2, apical to basolateral, 2-hr, read-out: Papp A − B.
Setting [8] is: Caco-2, class from Papp A-B, read-out: Permeability.
Setting [9] is: Caco-2, basolateral to apical, 2-hr.
Setting [10] is: Caco-2, basolateral to apical, 2-hr, read-out: % Recovery B − A.

Structures can show the parent of a compound that is named as a salt. Where two headings read alike, the source gives them in different places.

Sequence of kappa-opioid receptors (P41144 whole entry): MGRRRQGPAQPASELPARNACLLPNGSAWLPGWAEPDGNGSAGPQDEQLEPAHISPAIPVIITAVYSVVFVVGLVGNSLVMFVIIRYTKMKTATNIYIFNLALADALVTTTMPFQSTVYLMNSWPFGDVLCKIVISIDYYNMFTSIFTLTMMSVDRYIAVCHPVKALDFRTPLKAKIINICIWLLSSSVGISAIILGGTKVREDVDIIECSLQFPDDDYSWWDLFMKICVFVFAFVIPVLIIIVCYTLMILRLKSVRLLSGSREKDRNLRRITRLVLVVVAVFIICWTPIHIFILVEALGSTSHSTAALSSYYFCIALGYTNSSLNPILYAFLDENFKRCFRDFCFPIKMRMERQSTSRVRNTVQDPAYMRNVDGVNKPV
Description for dog hepatocytes: (§4) Human, dog and rat cryopreserved hepatocytes (Celsis-IVT; n=10 pooled donors) were thawed according to the recommended protocol of the cell provider. Cells were then diluted to 1 million viable cells per mL, plated in a 96-well plate (100 μL per well), and pre-incubated 20 min at 37° C. under 95:5 O2:CO2 atmosphere. Following addition of test compounds (10 μM; 1 μL of 1 mM stock solution (95:5 acetonitrile/DMSO) per well), cells were incubated with lid on up to 120 min at 37° C. under 95:5 O2:CO2 atmosphere. At time points 0, 15, 60 and 120 min, 100 μL of acetonitrile containing an internal standard (1 μM labetalol) was added to quench incubates, and the plate was centrifuged (5 min; 15K rpm). Supernatant was diluted 1:2 with water and analyzed by HPLC-MS/MS (ESI-). The MS2 scan mode was used instead of the MRM mode, in order to manually extract the Extracted Ion Current (EIC) of two potential metabolites: 3-cyanobenzenesulfonate and sodium 3-sulfobenzoate.
Description for human hepatocytes: as §4
Description for rat hepatocytes: as §4

For the compound “pyridinium 4-thiocarbamoylbenzenesulfonate”, in data set [1], the “stability of counter-ion (disappearance over time)” value is “stable in all these media”. Further, in the data set on Caco-2 cells, the “% Recovery A − B” value came to 106%, the “Papp A − B” value is under 0.54 ×10⁻⁶ cm/s, the “% Recovery B − A” value is 116% and the “Papp B − A” value is under 0.68 ×10⁻⁶ cm/s. Besides, in the data set with Caco-2 cells, the Permeability entry is recorded as “Low (A permeability of (Papp A-B)<1.0×10^−6 cm/s is considered low)” and the “Significant Efflux” value is reported as “No”.
A word on the melting point: it is the temperature, or range, at which the solid turns liquid. Turning to `N#Cc1cccc(S(=O)(=O)O)c1` [Example 14, 3-Cyano benzenesulfonic acid], the melting point amounted to 129 °C.
What is called pKa is the negative logarithm of the acid dissociation constant. As to `CCC(COC(=O)c1cc(OC)c(OC)c(OC)c1)(c1ccccc1)N(C)C` (centres unmarked) [Trimebutine, 3,4,5-trimethoxybenzoic acid 2-(dimethylamino)-2-phenylbutylester], the pKa in data set [2] is about 6.25. Further, in the data set on mu-opioid receptors, the “affinity to mu-opioid receptors” value is reported as “micromolar”. The “affinity to kappa-opioid receptors” value at kappa-opioid receptors is given as “micromolar”. Moreover, the metabolic stability entry in the data set on dog hepatocytes, in the data set on rat hepatocytes and in the data set on human hepatocytes was “capable of metabolizing trimebutine” throughout.
Regarding `NC(=S)c1ccc(C(=O)O)cc1` [4-thiocarbamoylbenzoic acid], the pKa in data set [2] is reported as about 3.3. For the same compound, the “stability of the trimebutine salt in the solid state” value in [3] was “unstable salt”.
As to `O=C(O)c1ccccc1` [benzoic acid], in data set [3], the “stability of the trimebutine salt in the solid state” value is “unstable salt”.
Consider `O=S(=O)(O)c1ccccn1` [Example 7, 2-Pyridinesulfonic acid], for which the melting point stood at 131 °C.
As usually defined, the efflux ratio is a quotient of directional permeabilities that is used to spot active efflux. As a reminder, the Papp B→A is how fast a substance crosses the layer from the basolateral side. On to `CCC(COC(=O)c1cc(OC)c(OC)c(OC)c1)(c1ccccc1)N(C)C` (centres unmarked) [Example 22, trimebutine 4-toluenesulfonate salt], for which the recovery at 2 h in data set [4] (setting [6]) was 58%. Moreover, the Papp A→B at 2 h in data set [4] (setting [7]) is 23.9 ×10⁻⁶ cm/s. Moreover, in [4] (setting [8]), the Papp A→B at 2 h is over 1 ×10⁻⁶ cm/s. The efflux ratio at 2 h in data set [4] (Caco-2) was found to be 0.9. Besides, the Papp B→A at 2 h in data set [4] (setting [9]) came to 21.7 ×10⁻⁶ cm/s. The recovery at 2 h in data set [4] (setting [10]) stood at 76%. In the data set on Caco-2 cells, the Permeability result is recorded as “high” and the “Significant Efflux” value is “No”. Further, in the data set with Sprague-Dawley rats, the bodyweight result is listed as “no change in bodyweight”, the death entry is “no death reported” and the toxicity entry is “no indication of any toxicity”.
In the case of `O=C([O-])c1cccc(S(=O)(=O)O)c1.[Na+]` [Sodium 3-sulfobenzoate, reference compound], the results for the recovery at 2 h in data set [4] (setting [6]) and in data set [4] (setting [10]) were 93% and 115%, respectively. For the same compound, the Papp A→B at 2 h was 0.59 ×10⁻⁶ cm/s in data set [4] (setting [7]) and under 1 ×10⁻⁶ cm/s in data set [4] (setting [8]). For the same compound, the efflux ratio at 2 h in data set [4] (Caco-2) turned out to be 1. For the same compound, the Papp B→A at 2 h in data set [4] (setting [9]) was 0.59 ×10⁻⁶ cm/s. Further, the “Significant Efflux” value in the data set on Caco-2 cells is listed as “No”.
`O=S(=O)(O)c1cccnc1` [Example 8, 3-Pyridinesulfonic acid]: the melting point is 119 °C.
Turning to “pyridinium 3-cyanobenzenesulfonate [Pyridinium 3-cyano-benzenesulfonate]”, in the data set on Caco-2 cells, the Efflux ratio was found to be 2.0, the “% Recovery A − B” value worked out at 84%, the “Papp A − B” value is 0.44 ×10⁻⁶ cm/s and the “% Recovery B − A” value amounted to 72%. In the data set with Caco-2 cells, the “Papp B − A” value was found to be 0.87 ×10⁻⁶ cm/s, the Permeability result was “Low (A permeability of (Papp A-B)<1.0×10^−6 cm/s is considered low)” and the “Significant Efflux” value is “No”.
As for `NC(=S)c1cccc(S(=O)(=O)O)c1`, in the data set with Caco-2 cells, the Efflux ratio was 1.2, the “% Recovery A − B” value was 63%, the “Papp A − B” value amounted to 0.28 ×10⁻⁶ cm/s and the “% Recovery B − A” value came to 82%. In the data set on Caco-2 cells, the “Papp B − A” value was 0.33 ×10⁻⁶ cm/s, the Permeability entry is listed as “Low (A permeability of (Papp A-B)<1.0×10^−6 cm/s is considered low)” and the “Significant Efflux” value is reported as “No”. Also, in data set [5], the “3-cyanobenzenesulfonate found in feces, share of administered dose” value is reported as “about 4%”; the “3-sulfobenzoate found, share of administered dose” value was 0.3%; the “share of total counter-ion administered orally found in feces” value was “About 80%”; the “share of total counter-ion administered orally found in urine” value is reported as about 20%. In the data set with dog hepatocytes, the metabolic stability result was “remained intact”. Besides, the metabolic stability entry with rat hepatocytes was “remained intact”. Further, the metabolic stability result in the data set on human hepatocytes is listed as “remained intact”.
`NC(=O)c1cccc(S(=O)(=O)O)c1` (as salt: potassium): the melting point is 223 °C.
Turning to `CCC(COC(=O)c1cc(OC)c(OC)c(OC)c1)(c1ccccc1)N(C)C` (centres unmarked), in the data set with Caco-2 cells, the Efflux ratio is given as 1.0, the “% Recovery A − B” value is 51%, the “Papp A − B” value was 23.2 ×10⁻⁶ cm/s and the “% Recovery B − A” value is 62%. For the same compound, in the data set with Caco-2 cells, the “Papp B − A” value came out at 24.3 ×10⁻⁶ cm/s and the Permeability entry is recorded as “High (a permeability of (Papp A-B)>1.0×10^−6 cm/s is considered high)”.
